Test results reported in the supplement of paper PMC8612539.

Columns and labels:
Enterococcus spp. = assay: minimum inhibitory concentration (MIC)
Procedure: (§1)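 Broth microdilution MIC (Sensititre BOPO7F bovine plate, CLSI methods) of 19 antimicrobials against field isolates of P. multocida, M. haemolytica, H. somni (deep nasopharyngeal swabs) and E. coli, Enterococcus spp. (rectal swabs) from weaned dairy heifers. Incubation 16-24 h at 35 C. MIC is the lowest concentration preventing visible growth. Values with <= or > lie at the tested range limits. Trimethoprim-sulfamethoxazole is given as the trimethoprim component of a 1:19 mixture.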

Histophilus somni = assay: minimum inhibitory concentration (MIC)
Procedure: as §1

COc1cc(NS(=O)(=O)c2ccc(N)cc2)nc(OC)n1 [sulfadimethoxine]
minimum inhibitory concentration [µg/mL]
Settings	Enterococcus spp.	Histophilus somni
isolate (source animal id): 2	> 256	–
isolate (source animal id): 3	–	≤ 256
isolate (source animal id): 4	–	≤ 256
isolate (source animal id): 7	–	≤ 256
isolate (source animal id): 14	–	≤ 256
isolate (source animal id): 15	–	≤ 256
isolate (source animal id): 17	–	≤ 256
isolate (source animal id): 18	–	≤ 256
isolate (source animal id): 20	–	≤ 256
isolate (source animal id): 23	–	> 256
isolate (source animal id): 35	> 256	–
isolate (source animal id): 42	> 256	–
isolate (source animal id): 44	> 256	–
isolate (source animal id): 45	–	> 256
isolate (source animal id): 53	–	> 256
isolate (source animal id): 79	> 256	–
isolate (source animal id): 83	–	≤ 256
isolate (source animal id): 88	> 256	≤ 256
isolate (source animal id): 91	> 256	–
isolate (source animal id): 92	> 256	≤ 256
isolate (source animal id): 93	–	≤ 256
isolate (source animal id): 99	–	≤ 256
isolate (source animal id): 100	–	≤ 256
isolate (source animal id): 105	–	≤ 256
isolate (source animal id): 107	–	≤ 256
isolate (source animal id): 108	–	≤ 256
isolate (source animal id): 109	–	≤ 256
isolate (source animal id): 110	–	≤ 256
isolate (source animal id): 111	> 256	–
isolate (source animal id): 117	–	≤ 256
isolate (source animal id): 121	–	≤ 256
isolate (source animal id): 122	> 256	–
isolate (source animal id): 123	> 256	≤ 256
isolate (source animal id): 124	–	≤ 256
isolate (source animal id): 127	–	≤ 256
isolate (source animal id): 128	–	≤ 256
isolate (source animal id): 130	–	≤ 256
isolate (source animal id): 132	–	≤ 256
isolate (source animal id): 133	> 256	–
isolate (source animal id): 135	–	≤ 256
isolate (source animal id): 140	–	≤ 256
isolate (source animal id): 141	–	≤ 256
isolate (source animal id): 142	–	≤ 256
isolate (source animal id): 144	–	≤ 256
isolate (source animal id): 146	–	≤ 256
isolate (source animal id): 147	–	≤ 256
isolate (source animal id): 151	–	≤ 256
isolate (source animal id): 153	–	≤ 256
isolate (source animal id): 154	–	≤ 256
isolate (source animal id): 156	–	≤ 256
isolate (source animal id): 157	–	≤ 256
isolate (source animal id): 158	> 256	–
isolate (source animal id): 168	> 256	–
isolate (source animal id): 169	> 256	–
isolate (source animal id): 171	> 256	–
isolate (source animal id): 175	> 256	–
isolate (source animal id): 176	–	> 256
isolate (source animal id): 177	> 256	–
isolate (source animal id): 181	> 256	–
isolate (source animal id): 182	> 256	–
isolate (source animal id): 183	> 256	> 256
isolate (source animal id): 186	–	> 256
isolate (source animal id): 187	> 256	–
isolate (source animal id): 190	> 256	–
isolate (source animal id): 194	> 256	–
isolate (source animal id): 195	> 256	–
isolate (source animal id): 196	–	> 256
isolate (source animal id): 197	> 256	–
isolate (source animal id): 198	–	> 256
isolate (source animal id): 200	–	> 256
isolate (source animal id): 206	–	> 256
isolate (source animal id): 208	–	> 256
isolate (source animal id): 210	–	> 256
isolate (source animal id): 211	> 256	–
isolate (source animal id): 212	–	≤ 256
isolate (source animal id): 214	> 256	–
isolate (source animal id): 215	–	> 256
isolate (source animal id): 216	–	> 256
isolate (source animal id): 218	–	≤ 256
isolate (source animal id): 219	–	> 256
isolate (source animal id): 222	> 256	–
isolate (source animal id): 223	> 256	–
isolate (source animal id): 224	–	> 256
isolate (source animal id): 228	> 256	> 256
isolate (source animal id): 230	> 256	> 256
isolate (source animal id): 233	–	> 256
isolate (source animal id): 235	> 256	–
isolate (source animal id): 236	> 256	–
isolate (source animal id): 238	–	> 256
isolate (source animal id): 239	> 256	≤ 256
isolate (source animal id): 241	> 256	> 256
isolate (source animal id): 242	–	> 256
isolate (source animal id): 243	–	≤ 256
isolate (source animal id): 244	> 256	–
isolate (source animal id): 245	–	> 256
isolate (source animal id): 246	> 256	> 256
isolate (source animal id): 247	> 256	> 256
isolate (source animal id): 248	–	≤ 256
isolate (source animal id): 250	> 256	> 256
isolate (source animal id): 251	–	> 256
isolate (source animal id): 252	> 256	> 256
isolate (source animal id): 254	–	> 256
isolate (source animal id): 258	–	≤ 256
isolate (source animal id): 259	–	> 256
isolate (source animal id): 262	–	≤ 256
isolate (source animal id): 264	–	≤ 256
isolate (source animal id): 265	–	> 256
isolate (source animal id): 266	–	> 256
isolate (source animal id): 267	–	> 256
isolate (source animal id): 268	> 256	–
isolate (source animal id): 269	–	≤ 256
isolate (source animal id): 271	–	> 256
isolate (source animal id): 272	–	> 256
isolate (source animal id): 274	–	≤ 256
isolate (source animal id): 276	–	≤ 256
isolate (source animal id): 278	–	> 256
isolate (source animal id): 280	–	> 256
isolate (source animal id): 281	–	> 256
isolate (source animal id): 282	> 256	–
isolate (source animal id): 283	–	≤ 256
isolate (source animal id): 285	> 256	–
isolate (source animal id): 288	–	≤ 256
isolate (source animal id): 289	> 256	–
isolate (source animal id): 290	> 256	–
isolate (source animal id): 291	–	≤ 256
isolate (source animal id): 292	–	> 256
isolate (source animal id): 296	> 256	≤ 256
isolate (source animal id): 298	> 256	–
isolate (source animal id): 301	> 256	–
isolate (source animal id): 306	–	> 256
isolate (source animal id): 310	> 256	–
isolate (source animal id): 320	> 256	–
isolate (source animal id): 331	> 256	–
isolate (source animal id): 333	> 256	–
isolate (source animal id): 336	–	≤ 256
isolate (source animal id): 337	–	≤ 256
isolate (source animal id): 341	> 256	≤ 256
